From paper PMC12079475, “Identification, validation, and characterization of approved and investigational drugs interfering with the SARS‐CoV‐2 endoribonuclease Nsp15” (Protein Science : A Publication of the Protein Society, 2025)
Structures can show the parent of a compound that is named as a salt. Where two headings read alike, the source gives them in different places.

Key:
SARS‐CoV‐2 Nsp15 [1] = target: T1, SARS‐CoV‐2 Nsp15 (Severe acute respiratory syndrome coronavirus 2, UniProt P0DTD1); experiment: biochemical
SARS‐CoV‐2 Nsp15 [2] = target: T1, SARS‐CoV‐2 Nsp15; experiment: biochemical; format: biochemical; conditions: for inhibition at 10 µM: read-out: Inhibition % +L-Cys 10 µM; for loss of the inhibition potency in L‐cysteine buffer: 1 mM L‐cysteine buffer compared with DTT buffer
Nsp15 = Nsp15 (Severe acute respiratory syndrome coronavirus 2, UniProt P0DTD1)
[3] = tested on: SARS‐CoV‐2 in Vero‐E6 cells; design: method as in Zaliani et al., 2022; conditions: ref Zaliani et al., 2022, read-out: EC50 cytopathic (CPE) assay; cited from earlier work
Vero‐E6 cells = conditions: tested concentration range up to 32 μM; ref Zaliani et al., 2022; cited from earlier work
[4] = 1 mM DTT buffer, confidence interval in brackets, read-out: IC50 + DTT (μM) (CI in μM)
[5] = DTT buffer (Table S1), read-out: IC50 +DTT
[6] = hit confirmation, 10 µM, DTT buffer
[7] = primary screen, 10 µM (Table S1)
[8] = primary screen, 10 μM compound, 1 mM DTT buffer, normalized to 50 μM Congo red (100%) and DMSO (0%)
[9] = hit confirmation, 10 µM, DTT buffer, read-out: HC inhibition % +DTT 10 µM
[10] = primary screen, 10 µM (Table S1), read-out: PS Inhibition % 10 µM
[11] = primary screen, 10 μM compound, 1 mM DTT buffer, normalized to 50 μM Congo red (100%) and DMSO (0%), read-out: PS inhibition % 10 μM (single point measurement)
[12] = 1 mM L-cysteine buffer, confidence interval in brackets, read-out: IC50 + L‐Cys (μM) (CI in μM)
[13] = L-cysteine buffer (Table S1), read-out: IC50 +L-Cys

Molecule	IC50 (SARS‐CoV‐2 Nsp15 [1]; [4])	IC50 (SARS‐CoV‐2 Nsp15 [1]; [5])	inhibition at 10 µM (SARS‐CoV‐2 Nsp15 [1]; [9])	inhibition at 10 µM (SARS‐CoV‐2 Nsp15 [1]; [10])	inhibition at 10 µM (SARS‐CoV‐2 Nsp15 [1]; [11])	inhibition at 10 µM (SARS‐CoV‐2 Nsp15 [2]; 10 µM, L-cysteine buffer)	IC50 (SARS‐CoV‐2 Nsp15 [2]; [12])	IC50 (SARS‐CoV‐2 Nsp15 [2]; [13])	further results
Cc1[nH]c2ccc(F)cc2c1-c1nc2c3cccnc3c3ncccc3c2[nH]1 [APTO‐253]	7.8 µM	7.75 µM							HC inhibition % +DTT 10 µM (SARS‐CoV‐2 Nsp15 [1]; [6]): 78,02%; PS Inhibition % 10 µM (SARS‐CoV‐2 Nsp15 [1]; [7]): 61,11%; PS inhibition % 10 μM (single point measurement) (SARS‐CoV‐2 Nsp15 [1]; [8]): 61.1%; Inhibition % +L-Cys 10 µM (SARS‐CoV‐2 Nsp15 [2]; 10 µM, L-cysteine buffer): 48,13%
CC(C)Nc1cccnc1N1CCN(C(=O)c2cc3cc(NS(C)(=O)=O)ccc3[nH]2)CC1 [Delavirdine (mesylate)]	2.3 µM	2.29 µM	77.3%	80.7%	80.7%	27.2%			loss of the inhibition potency in L‐cysteine buffer (SARS‐CoV‐2 Nsp15 [2]): more than 50%
COc1cccc2c1C(=O)c1c(O)c3c(c(O)c1C2=O)C[C@@](O)(C(=O)CO)C[C@@H]3O[C@H]1C[C@H](N)[C@H](O)[C@H](C)O1 [Doxorubicin]									IC50 (SARS‐CoV‐2 Nsp15 [1]; IC50 + DTT (μM) (CI in μM)): 3.7 µM; IC50 (SARS‐CoV‐2 Nsp15 [1]; IC50 +DTT (µM)): 3.69 µM; IC50 (SARS‐CoV‐2 Nsp15 [2]; IC50 + L‐Cys (μM) (CI in μM)): 2.3 µM; IC50 (SARS‐CoV‐2 Nsp15 [2]; IC50 +L-Cys (µM)): 2.26 µM
COc1cccc(C=NCCN=Cc2cccc(OC)c2[O-])c1[O-].[Cl-].[Mn+3] [EUK 134]	3.3 µM	3.34 µM							HC inhibition % +DTT 10 µM (SARS‐CoV‐2 Nsp15 [1]; [6]): 56,68%; PS Inhibition % 10 µM (SARS‐CoV‐2 Nsp15 [1]; [7]): 70,85%; PS inhibition % 10 μM (single point measurement) (SARS‐CoV‐2 Nsp15 [1]; [8]): 70.9%; Inhibition % +L-Cys 10 µM (SARS‐CoV‐2 Nsp15 [2]; 10 µM, L-cysteine buffer): 16,41%; loss of the inhibition potency in L‐cysteine buffer (SARS‐CoV‐2 Nsp15 [2]): more than 50%
COc1cc2c(cc1OC)CN(CCc1ccc(NC(=O)c3cccc4c(=O)c5cccc(OC)c5[nH]c34)cc1)CC2 [Elacridar]	4.9 µM	4.99 µM	72.7%	68.3%	68.3%	15.9%			loss of the inhibition potency in L‐cysteine buffer (SARS‐CoV‐2 Nsp15 [2]): more than 50%
COc1cccc2c1C(=O)c1c(O)c3c(c(O)c1C2=O)C[C@@](O)(C(=O)CO)C[C@@H]3O[C@H]1C[C@H](N)[C@@H](O)[C@H](C)O1 [Epirubicin hydrochloride]									IC50 (SARS‐CoV‐2 Nsp15 [1]; IC50 + DTT (μM) (CI in μM)): 3.4 µM; IC50 (SARS‐CoV‐2 Nsp15 [1]; IC50 +DTT (µM)): 3.37 µM; IC50 (SARS‐CoV‐2 Nsp15 [2]; IC50 + L‐Cys (μM) (CI in μM)): 1.5 µM; IC50 (SARS‐CoV‐2 Nsp15 [2]; IC50 +L-Cys (µM)): 1.46 µM
CCOC(=O)CCNc1cc(N2CCc3ccccc3CC2)nc(-c2ccccn2)n1 [GSK J4 HCl]	5.5 µM	5.48 µM	82.2%	75.8%	75.8%	77.9%	3.8 µM	3.81 µM	
Oc1ccc2ccccc2c1SSc1c(O)ccc2ccccc12 [IPA‐3]									HC inhibition % +DTT 10 µM (SARS‐CoV‐2 Nsp15 [1]): 89,23%; PS Inhibition % 10 µM (SARS‐CoV‐2 Nsp15 [1]): 86,58%; PS inhibition % 10 μM (single point measurement) (SARS‐CoV‐2 Nsp15 [1]): 86.6%; IC50 (SARS‐CoV‐2 Nsp15 [1]; read-out: IC50 + DTT (μM) (CI in μM)): 0.9 µM; IC50 (SARS‐CoV‐2 Nsp15 [1]; read-out: IC50 +DTT): 0.99 µM; Inhibition % +L-Cys 10 µM (SARS‐CoV‐2 Nsp15 [2]): 51,34%
O=C1c2c(O)ccc(O)c2C(=O)c2c(NCCNCCO)ccc(NCCNCCO)c21 [Mitoxantrone hydrochloride]									IC50 (SARS‐CoV‐2 Nsp15 [1]; IC50 + DTT (μM) (CI in μM)): 1.5 µM; IC50 (SARS‐CoV‐2 Nsp15 [1]; IC50 +DTT (µM)): 1.47 µM; IC50 (SARS‐CoV‐2 Nsp15 [2]; IC50 + L‐Cys (μM) (CI in μM)): 0.5 µM; IC50 (SARS‐CoV‐2 Nsp15 [2]; IC50 +L-Cys (µM)): 0.47 µM
O=C1C(Cl)=C(NCCN2CCOCC2)C(=O)c2ncccc21 [NSC‐663284]	0.5 µM	0.48 µM							HC inhibition % +DTT 10 µM (SARS‐CoV‐2 Nsp15 [1]; [6]): 82,57%; PS Inhibition % 10 µM (SARS‐CoV‐2 Nsp15 [1]; [7]): 85,51%; PS inhibition % 10 μM (single point measurement) (SARS‐CoV‐2 Nsp15 [1]; [8]): 85.5%; Inhibition % +L-Cys 10 µM (SARS‐CoV‐2 Nsp15 [2]; 10 µM, L-cysteine buffer): 53,53%
COc1cccc2c1C(=O)c1c(O)c3c(c(O)c1C2=O)C[C@@](O)(C(=O)CO)C[C@@H]3O[C@H]1C[C@H](N2CCO[C@H](OC)C2)[C@H](O)[C@H](C)O1 [Nemorubicin]	2.6 µM	2.61 µM	69.2%	65.2%	65.2%	69%	1.3 µM		
CCCCCCCCN=c1ccn(CCCCCCCCCCn2ccc(=NCCCCCCCC)cc2)cc1 [Octenidine dihydrochloride]	3.8 µM	3.76 µM	92.4%	98.6%	98.6%	103%	4.4 µM	4.36 µM	
CN[C@H](CC(C)C)C(=O)N[C@H]1C(=O)N[C@@H](CC(N)=O)C(=O)N[C@H]2C(=O)N[C@H]3C(=O)N[C@H](C(=O)N[C@H](C(=O)O)c4cc(O)cc(O)c4-c4cc3ccc4O)[C@H](O[C@H]3C[C@](C)(N)[C@@H](O)[C@H](C)O3)c3ccc(c(Cl)c3)Oc3cc2cc(c3O[C@@H]2O[C@H](CO)[C@@H](O)[C@H](O)[C@H]2O[C@H]2C[C@](C)(NCc3ccc(-c4ccc(Cl)cc4)cc3)[C@@H](O)[C@H](C)O2)Oc2ccc(cc2Cl)[C@H]1O.O=P(O)(O)O.O=P(O)(O)O [Oritavancin (diphosphate)]	2.5 µM	2.53 µM					1.2 µM	1.24 µM	HC inhibition % +DTT 10 µM (SARS‐CoV‐2 Nsp15 [1]; [6]): 92,52%; PS Inhibition % 10 µM (SARS‐CoV‐2 Nsp15 [1]; [7]): 86,71%; PS inhibition % 10 μM (single point measurement) (SARS‐CoV‐2 Nsp15 [1]; [8]): 86.7%; Inhibition % +L-Cys 10 µM (SARS‐CoV‐2 Nsp15 [2]; 10 µM, L-cysteine buffer): 91,07%; ΔT m°C nDSF (Nsp15): 0 °C
NCCNc1ccc(NCCN)c2c1C(=O)c1ccncc1C2=O [Pixantrone (dimaleate)]	5.2 µM	5.23 µM	77.5%	82.3%	82.3%	72.8%	4.4 µM	4.37 µM	
C/C(=N\NC(=N)N)c1cc(NC(=O)CCCCCCCCC(=O)Nc2cc(/C(C)=N/NC(=N)N)cc(/C(C)=N/NC(=N)N)c2)cc(/C(C)=N/NC(=N)N)c1 [Semapimod]	0.6 µM	0.61 µM					1 µM	1.01 µM	HC inhibition % +DTT 10 µM (SARS‐CoV‐2 Nsp15 [1]; [6]): 99,81%; PS Inhibition % 10 µM (SARS‐CoV‐2 Nsp15 [1]; [7]): 106,91%; PS inhibition % 10 μM (single point measurement) (SARS‐CoV‐2 Nsp15 [1]; [8]): 106.9%; Inhibition % +L-Cys 10 µM (SARS‐CoV‐2 Nsp15 [2]; 10 µM, L-cysteine buffer): 100,99%
CN(C)CCNc1nc2cc(O)ccc2c2c1C(=O)c1ccccc1-2.Cl.Cl [TAS‐103 (dihydrochloride), 6‐[2‐(dimethylamino)ethylamino]‐ 3‐hydroxy‐7H‐indeno[2,1‐C]quinolin‐7‐one dihydrochloride]	6.6 µM	6.55 µM	63.6%	63.4%	63.4%	-33.9%			loss of the inhibition potency in L‐cysteine buffer (SARS‐CoV‐2 Nsp15 [2]): more than 50%; ΔT m°C nDSF (Nsp15): 0.6 °C
Cc1cc2nc3ccc(N(C)C)cc3[s+]c2cc1N [Tolonium chloride]	1.7 µM	1.65 µM	76.5%	72%	72%	77.8%	1.3 µM	1.34 µM	
COc1cc2c(NC3CCN(C)CC3)nc(N3CCCN(C)CC3)nc2cc1OCCCN(C)C [UNC0224]	2.6 µM	2.57 µM	73.9%	70.6%	70.6%	83.2%	4 µM		
COc1cc2c(NC3CCN(C)CC3)nc(N3CCCN(C)CC3)nc2cc1OCCOCCN(C)C [UNC0321]	3.9 µM	3.89 µM	77.6%	64%	63.9%	72.9%	3.2 µM	3.21 µM	
COc1cc2c(NC3CCN(CC4CCCCC4)CC3)nc(N3CCCN(C(C)C)CC3)nc2cc1OCCCN1CCCCC1 [UNC0631]	2.2 µM	2.21 µM	71.4%	84.8%	84.8%	79.3%	2.5 µM	2.54 µM	
COc1cc2c(NC3CCN(C(C)C)CC3)nc(C3CCCCC3)nc2cc1OCCCN1CCCC1 [UNC0638]	2.8 µM	2.84 µM	69.5%	56.7%	56.7%	69.9%	4.8 µM	4.77 µM	
COc1cc2c(NC3CCN(C(C)C)CC3)nc(N3CCC(F)(F)CC3)nc2cc1OCCCN1CCCC1 [UNC0642]	6.3 µM	6.27 µM	77.5%	56.9%	56.9%	80.2%	3.3 µM	3.27 µM	EC50 [3]: 16700 nM; CC50 (Vero‐E6 cells): > 32000 nM
CC1(C)CCC2=C(O1)C(=O)c1ccccc1C2=O [alphaLapachone]	2.2 µM	2.15 µM	82.8%	76%	76%	28.6%			loss of the inhibition potency in L‐cysteine buffer (SARS‐CoV‐2 Nsp15 [2]): more than 50%
BVT‐948	0.4 µM	0.41 µM							HC inhibition % +DTT 10 µM (SARS‐CoV‐2 Nsp15 [1]; [6]): 84,54%; PS Inhibition % 10 µM (SARS‐CoV‐2 Nsp15 [1]; [7]): 72,99%; PS inhibition % 10 μM (single point measurement) (SARS‐CoV‐2 Nsp15 [1]; [8]): 72.9%; Inhibition % +L-Cys 10 µM (SARS‐CoV‐2 Nsp15 [2]; 10 µM, L-cysteine buffer): -3,98%; loss of the inhibition potency in L‐cysteine buffer (SARS‐CoV‐2 Nsp15 [2]): more than 50%
